Source: patent publication US20210277264A1, “INK COMPOSITIONS” (HEWLETT-PACKARD DEVELOPMENT COMPANY, L.P., priority 2018, published 2021)

Test: Partition coefficient (log P 1-octanol/water) of organic co-solvents
Conditions: not given
Source text: The hydrophilicity of the organic co-solvent can be quantified as a partition coefficient. As used herein, “partition coefficient” refers to a concentration ratio of a compound in an equilibrium mixture of two immiscible phases, and can be a measure of the difference in solubility of the compound in the two immiscible phases. Formula I provides an equation of quantifying the hydrophilicity of the organic co-solvents of the present disclosure, as follows: […]

| Partition Coefficient (log P1-octanol/water) | SMILES |
| --- | --- |
| −0.40 | CC1(C)NC(=O)NC1=O [5,5-dimethyl hydantoin] |
| 2.34 | CCCCCCCCO [Ink 1-octanol, 1-octanol] |
| −0.40 | O=C1CCCN1CCO [N-(2-hydroxyethyl)-2-pyrrolidinone] |
| −1.39 | CC1(C)C(=O)N(CCO)C(=O)N1CCO [di-(2-hydroxyethy)-5,5-dimethylhydantoin] |
| −1.00 | OCCOCCOCCO [triethylene glycol] |

| SMILES | Partition Coefficient (log P1-octanol/water) |
| --- | --- |
| O [water] | −0.825 |

Same assay, conditions: equilibrium mixture of 1-octanol and water

| SMILES | Partition Coefficient (log P1-octanol/water) |
| --- | --- |
| O=C1CCCN1 [2-pyrrolidone] | −0.10 |
| CCC(CO)(CO)CO [ethylhydroxy propanediol] | −0.50 |
